Test results: patent EP4417602A1, “SUBSTITUTED PYRAZOLE CARBOXAMIDES, SALTS THEREOF AND THEIR USE AS HERBICIDALLY ACTIVE SUBSTANCES” (Bayer AG, priority 2023, dated 2024)

Columns and labels:
DIGSA [1] = assay: A. Herbicidal pre-emergence action on harmful plants (Tables A); format: in vivo, Digitaria sanguinalis
How it was run: (§1)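 Greenhouse pre-emergence test: compound applied to the soil surface at 1280 g/ha or below, and herbicidal effect rated visually at ca. 3 weeks on a 0–100% scale against untreated plants.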

ALOMY [2] = assay: B. Herbicidal post-emergence action on harmful plants (Tables B); format: in vivo, Alopecurus myosuroides; details: application rate 1280 g/ha; Table B9a
Procedure: (§2) Seeds of mono- and dicotyledonous weed plants were placed in plastic pots in sandy loam soil (doubly sown with in each case one species of mono- or dicotyledonous weed plants per pot), covered with soil and cultivated in a greenhouse under controlled growth conditions. 2 to 3 weeks after sowing, the test plants were treated at the one-leaf stage. The compounds of the invention, formulated in the form of wettable powders (WP) or as emulsion concentrates (EC), were applied onto the green parts of the plants as aqueous suspension or emulsion with addition of 0.5% additive at a water application rate of 600 liters per hectare (converted). After the test plants had been kept in the greenhouse under optimum growth conditions for about 3 weeks, the activity of the preparations was rated visually in comparison to untreated controls. For example, 100% activity = the plants have died, 0% activity = like control plants. Tables B1 to B12, below, show the effects of selected compounds of the general formula (I) according to table 1 on various harmful plants and an application rate corresponding to 1280 g/ha or below obtained by the experimental procedure mentioned above. Table B1a: post-emergence activity at 1280g/ha against ABUTH in %

VERPE = assay: as above; format: in vivo, Veronica persica
How it was run: (§3)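 Activity was scored visually as % damage (100% = dead, 0% = like untreated) about 3 weeks after treatment. Plants at the one-leaf stage, 2-3 weeks old, were sprayed with WP/EC formulations plus 0.5% additive (600 L/ha water, up to 1280 g/ha). Plants were grown in sandy loam in a greenhouse.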

ALOMY [3] = assay: A. Herbicidal pre-emergence action on harmful plants (Tables A); format: in vivo, Alopecurus myosuroides
How it was run: as §1

ECHCG [4] = assay: B. Herbicidal post-emergence action on harmful plants (Tables B); format: in vivo, Echinochloa crus-galli; details: application rate 1280 g/ha; Table B2a
How it was run: as §3

ABUTH = assay: as above; format: in vivo, Abutilon theophrasti; details: application rate 1280 g/ha; Table B1a
Procedure: as §2

STEME [5] = assay: A. Herbicidal pre-emergence action on harmful plants (Tables A); format: in vivo, Stellaria media; details: visual grading after ca. 3 weeks vs untreated controls, 100% = plants have died off, 0% = as control plants
How it was run: as §1

POAAN [6] = assay: as above; format: in vivo, Poa annua
How it was run: as §1

ECHCG [7] = assay: as above; format: in vivo, Echinochloa crus-galli; details: visual grading after ca. 3 weeks vs untreated controls, 100% = plants have died off, 0% = as control plants
How it was run: as §1

POAAN [8] = assay: B. Herbicidal post-emergence action on harmful plants (Tables B); format: in vivo, Poa annua
How it was run: as §3

SETVI [9] = assay: as above; format: in vivo, Setaria viridis; details: application rate 1280 g/ha; Table B5
Procedure: as §2

LOLRI = assay: A. Herbicidal pre-emergence action on harmful plants (Tables A); format: in vivo, Lolium rigidum; details: visual grading after ca. 3 weeks vs untreated controls, 100% = plants have died off, 0% = as control plants
How it was run: as §1

MATIN [10] = assay: as above; format: in vivo, Matricaria inodora; details: visual grading after ca. 3 weeks vs untreated controls, 100% = plants have died off, 0% = as control plants
How it was run: as §1

SETVI [11] = assay: as above; format: in vivo, Setaria viridis; details: visual grading after ca. 3 weeks vs untreated controls, 100% = plants have died off, 0% = as control plants
How it was run: as §1

AMARE = assay: as above; format: in vivo, Amaranthus retroflexus
How it was run: as §1

DIGSA [12] = assay: B. Herbicidal post-emergence action on harmful plants (Tables B); format: in vivo, Digitaria sanguinalis; details: application rate 1280 g/ha; Table B12a
Procedure: as §2

STEME [13] = assay: as above; format: in vivo, Stellaria media; details: application rate 1280 g/ha; Table B6
Procedure: as §2

MATIN [14] = assay: as above; format: in vivo, Matricaria inodora; details: application rate 1280 g/ha; Table B4a
Procedure: as §2

[15] = application rate 1280 g/ha, Table A12a
[16] = application rate 1280 g/ha, Table B11a
[17] = application rate 1280 g/ha, Table A9a
[18] = application rate 320 g/ha, Table A7b
[19] = application rate 1280 g/ha, visual grading after ca. 3 weeks vs untreated controls, 100% = plants have died off, 0% = as control plants
[20] = application rate 320 g/ha, Table A12b
[21] = application rate 1280 g/ha, Table B7a
[22] = application rate 80 g/ha, Table A7c
[23] = application rate 80 g/ha, Table A12c

SMILES: Cn1cc(C(=O)N2CCCC2Cc2cc(F)ccc2F)c(COc2ccccc2)n1 (racemic) [Example I-010]
- pre-emergence activity against DIGSA (DIGSA [1]; [15]): 90%
- post-emergence activity against ALOMY (ALOMY [2]): 90%
- post-emergence activity against VERPE (VERPE; [16]): 90%
- pre-emergence activity against ALOMY (ALOMY [3]; [17]): 100%
- post-emergence activity against ECHCG (ECHCG [4]): 90%
- post-emergence activity against ABUTH (ABUTH): 90%
- pre-emergence activity against STEME (STEME [5]; application rate 1280 g/ha): 90%
- pre-emergence activity against POAAN (POAAN [6]; [18]): 90%
- pre-emergence activity against POAAN (POAAN [6]; [19]): 100%

SMILES: COCc1nn(C)cc1C(=O)N1CCCC1C(O)c1ccccc1F (single isomer, unassigned) [Example I-054]
- pre-emergence activity against ECHCG (ECHCG [7]; application rate 320 g/ha): 90%
- pre-emergence activity against ECHCG (ECHCG [7]; application rate 1280 g/ha): 100%
- pre-emergence activity against DIGSA (DIGSA [1]; [20]): 90%
- pre-emergence activity against DIGSA (DIGSA [1]; [15]): 100%
- post-emergence activity against POAAN (POAAN [8]; [21]): 90%
- post-emergence activity against SETVI (SETVI [9]): 90%
- pre-emergence activity against LOLRI (LOLRI; application rate 1280 g/ha): 90%
- pre-emergence activity against STEME (STEME [5]; application rate 320 g/ha): 90%
- pre-emergence activity against STEME (STEME [5]; application rate 1280 g/ha): 90%
- pre-emergence activity against POAAN (POAAN [6]; [22]): 90%
- pre-emergence activity against POAAN (POAAN [6]; [18]): 90%
- pre-emergence activity against POAAN (POAAN [6]; [19]): 100%
- pre-emergence activity against MATIN (MATIN [10]; application rate 320 g/ha): 90%
- pre-emergence activity against MATIN (MATIN [10]; application rate 1280 g/ha): 90%
- pre-emergence activity against SETVI (SETVI [11]; application rate 320 g/ha): 90%
- pre-emergence activity against SETVI (SETVI [11]; application rate 1280 g/ha): 90%

SMILES: COCc1nn(C)cc1C(=O)N1CCCC1Cc1ccccc1C (single isomer, unassigned) [Example I-084]
- pre-emergence activity against ECHCG (ECHCG [7]; application rate 80 g/ha): 90%
- pre-emergence activity against ECHCG (ECHCG [7]; application rate 320 g/ha): 90%
- pre-emergence activity against ECHCG (ECHCG [7]; application rate 1280 g/ha): 90%
- pre-emergence activity against DIGSA (DIGSA [1]; [23]): 90%
- pre-emergence activity against DIGSA (DIGSA [1]; [20]): 90%
- pre-emergence activity against DIGSA (DIGSA [1]; [15]): 90%
- post-emergence activity against VERPE (VERPE; application rate 320 g/ha, Table B11b): 90%
- post-emergence activity against VERPE (VERPE; [16]): 90%
- post-emergence activity against POAAN (POAAN [8]; application rate 320 g/ha, Table B7b): 100%
- post-emergence activity against POAAN (POAAN [8]; [21]): 100%
- pre-emergence activity against AMARE (AMARE; application rate 320 g/ha, Table A8b): 90%
- pre-emergence activity against AMARE (AMARE; [19]): 90%
- pre-emergence activity against ALOMY (ALOMY [3]; [17]): 90%
- post-emergence activity against ECHCG (ECHCG [4]): 90%
- post-emergence activity against ABUTH (ABUTH): 90%
- pre-emergence activity against LOLRI (LOLRI; application rate 320 g/ha): 90%
- pre-emergence activity against LOLRI (LOLRI; application rate 1280 g/ha): 100%
- post-emergence activity against DIGSA (DIGSA [12]): 90%
- pre-emergence activity against STEME (STEME [5]; application rate 320 g/ha): 90%
- pre-emergence activity against STEME (STEME [5]; application rate 1280 g/ha): 90%
- post-emergence activity against STEME (STEME [13]): 90%
- pre-emergence activity against POAAN (POAAN [6]; [22]): 100%
- pre-emergence activity against POAAN (POAAN [6]; [18]): 100%
- pre-emergence activity against POAAN (POAAN [6]; [19]): 100%
- post-emergence activity against MATIN (MATIN [14]): 90%
- pre-emergence activity against MATIN (MATIN [10]; application rate 80 g/ha): 90%
- pre-emergence activity against MATIN (MATIN [10]; application rate 320 g/ha): 90%
- pre-emergence activity against MATIN (MATIN [10]; application rate 1280 g/ha): 90%
- pre-emergence activity against SETVI (SETVI [11]; application rate 80 g/ha): 90%
- pre-emergence activity against SETVI (SETVI [11]; application rate 320 g/ha): 90%
- pre-emergence activity against SETVI (SETVI [11]; application rate 1280 g/ha): 100%

SMILES: COCc1nn(C)cc1C(=O)N1CCCC1Cc1cccc(F)c1F (single isomer, unassigned) [Example I-088]
- pre-emergence activity against ECHCG (ECHCG [7]; application rate 80 g/ha): 90%
- pre-emergence activity against ECHCG (ECHCG [7]; application rate 320 g/ha): 90%
- pre-emergence activity against ECHCG (ECHCG [7]; application rate 1280 g/ha): 100%
- pre-emergence activity against DIGSA (DIGSA [1]; [23]): 100%
- pre-emergence activity against DIGSA (DIGSA [1]; [20]): 100%
- pre-emergence activity against DIGSA (DIGSA [1]; [15]): 100%
- post-emergence activity against POAAN (POAAN [8]; [21]): 90%
- post-emergence activity against SETVI (SETVI [9]): 90%
- pre-emergence activity against ALOMY (ALOMY [3]; application rate 320 g/ha, Table A9b): 90%
- pre-emergence activity against ALOMY (ALOMY [3]; [17]): 100%
- pre-emergence activity against LOLRI (LOLRI; application rate 80 g/ha): 90%
- pre-emergence activity against LOLRI (LOLRI; application rate 320 g/ha): 100%
- pre-emergence activity against LOLRI (LOLRI; application rate 1280 g/ha): 100%
- post-emergence activity against DIGSA (DIGSA [12]): 90%
- pre-emergence activity against STEME (STEME [5]; application rate 80 g/ha): 90%
- pre-emergence activity against STEME (STEME [5]; application rate 320 g/ha): 90%
- pre-emergence activity against STEME (STEME [5]; application rate 1280 g/ha): 90%
- pre-emergence activity against POAAN (POAAN [6]; [22]): 90%
- pre-emergence activity against POAAN (POAAN [6]; [18]): 100%
- pre-emergence activity against POAAN (POAAN [6]; [19]): 100%
- post-emergence activity against MATIN (MATIN [14]): 90%
- pre-emergence activity against MATIN (MATIN [10]; application rate 80 g/ha): 90%
- pre-emergence activity against MATIN (MATIN [10]; application rate 320 g/ha): 90%
- pre-emergence activity against MATIN (MATIN [10]; application rate 1280 g/ha): 90%
- pre-emergence activity against SETVI (SETVI [11]; application rate 80 g/ha): 90%
- pre-emergence activity against SETVI (SETVI [11]; application rate 320 g/ha): 100%
- pre-emergence activity against SETVI (SETVI [11]; application rate 1280 g/ha): 100%

SMILES: COCc1nn(C)cc1C(=O)N1CCCC1C(C)c1ccccc1F (centres unmarked) [Example I-021]
- pre-emergence activity against ECHCG (ECHCG [7]; application rate 1280 g/ha): 100%
- pre-emergence activity against DIGSA (DIGSA [1]; [20]): 90%
- pre-emergence activity against DIGSA (DIGSA [1]; [15]): 100%
- post-emergence activity against POAAN (POAAN [8]; [21]): 90%
- post-emergence activity against SETVI (SETVI [9]): 90%
- pre-emergence activity against ALOMY (ALOMY [3]; [17]): 90%
- post-emergence activity against ECHCG (ECHCG [4]): 90%
- pre-emergence activity against LOLRI (LOLRI; application rate 320 g/ha): 100%
- pre-emergence activity against LOLRI (LOLRI; application rate 1280 g/ha): 100%
- pre-emergence activity against POAAN (POAAN [6]; [18]): 100%
- pre-emergence activity against POAAN (POAAN [6]; [19]): 100%
- post-emergence activity against MATIN (MATIN [14]): 90%
- pre-emergence activity against MATIN (MATIN [10]; application rate 1280 g/ha): 90%
- pre-emergence activity against SETVI (SETVI [11]; application rate 320 g/ha): 100%
- pre-emergence activity against SETVI (SETVI [11]; application rate 1280 g/ha): 100%
